Where “and” joins values, the source holds several entries; their conditions need not be identical. Identical values can stand only once.

The subject of this assay is thermally-induced nociception in rats. The assay can be described thus: Tail-flick test (thermally-induced nociception) in rats. The class given is in vivo, rat (male Sprague-Dawley). The following applies: i.p., rat, cut off 10 seconds. How it is done: The purpose of the study was to determine the analgesic effect of tetrahydrocannabinol (Δ-9 THC) alone, Morphine Alone and Δ-9 THC in combination with Morphine on thermal-induced pain was determined. […] The dose response curve for the tail flick test and the analgesic effects of various doses of Morphine alone, Δ-9 THC alone as well as various doses of Δ-9 THC combined with various doses of morphine was determined by comparing pre-injection baseline values to post-injection values.
The tail-flick test was performed according to the following procedure:
Male Sprague-Dawley rats all with an approximate age of 85 to 90 days were each weighed prior to being subjected to any tests, on the day of the experiment. Each rat was only used for one day of experiments, and given only one dose, or dose combination. • 1. Prior to tail-flick test, rats are habituated for three days to handling and the tail flick procedure, without heat exposure. • 2. On the day of the experiment, warm up the tail-flick apparatus (IITC Model 33, Life Science, Woodland Hills, Calif.) for at least 30 minutes. • 3. Adjust the intensity of the lamp so that baseline tail-flick latency for rats is equal to approximately 2.0 seconds. […] Place rat in a mitten and blacken tail with ink approximately 2 inches in length at 1 inch from the tip of the tail. • 6. Place the tail flatly in the groove of the tail-flick apparatus. • 7. Push start to begin heat exposure. The lamp will turn off automatically when the tail flicks from the heat source. • 8. For each rat, a baseline score is determined prior to injection. TFL (tail flick latency) is measured twice in an approximate 15 minute intervals and an average of the two times determines the baseline. • 9. Once the baseline value is determined, TFL is measured, following the injection of drugs, at times 15, 30, 60 and 120 minutes.
All solutions were made on the day of the experiment. Not all of the solutions described below were used in every experiment. The drug combinations vary for each experiment. Each particular combination for an experiment is reported in the corresponding table below.
Each animal is given an injection of morphine that is 1 ml/kg body weight, and an injection of THC or control that is varies by dose and the injection volume is calculated as set forth above.

Setting [1] is: Example 10, dose Z: 2 mg/kg morphine 30 minutes after vehicle.

For the compound `CCCCCc1cc(O)c2c(c1)OC(C)(C)[C@@H]1CCC(C)=C[C@@H]21` [Δ-9 THC, delta-9-tetrahydrocannabinol], the “Tail Flick Latency (TFL, seconds) 15 min” value is 2.33 s and 1.77 s and 2.10 s (Example 6, dose X: saline and 2 mg/kg Δ-9 THC, 15 min); 2.57 s and 1.88 s and 3.65 s (Example 8, dose X: saline and 2 mg/kg Δ-9 THC, 15 min); 2.12 s and 2.03 s (dose E: saline and 1 mg/kg Δ-9 THC, 15 min). Also, the “Tail Flick Latency (TFL, seconds) 180 min” value (dose C: saline and 8 mg/kg Δ-9 THC) was determined as 10.0 s. The “Tail Flick Latency (TFL, seconds) 240 min” value (dose C: saline and 8 mg/kg Δ-9 THC, 240 min) was 9.21 s and 8.98 s and 7.28 s. Further, the “Tail Flick Latency (TFL, seconds) 30 min” value is 2.56 s and 2.15 s (dose E: saline and 1 mg/kg Δ-9 THC); 5.07 s and 5.89 s and 5.10 s (dose G: saline and 4 mg/kg Δ-9 THC). Further, the “Tail Flick Latency (TFL, seconds) 60 min” value runs as follows: (dose E: saline and 1 mg/kg Δ-9 THC, 60 min) 3.98 s and 5.07 s; (dose G: saline and 4 mg/kg Δ-9 THC, 60 min) 6.24 s and 8.76 s and 6.48 s. Also, the “Tail Flick Latency (TFL, seconds) 120 min” value (dose E: saline and 1 mg/kg Δ-9 THC, 120 min) is 4.20 s and 3.09 s.
For the compound `CN1CC[C@]23c4c5ccc(O)c4O[C@H]2[C@@H](O)C=C[C@H]3[C@H]1C5` [Morphine], the “Tail Flick Latency (TFL, seconds) 15 min” value was 3.08 s and 3.12 s and 2.28 s (Example 7, dose Z: vehicle and 2 mg/kg morphine, 15 min); 2.41 s and 2.99 s and 3.89 s and 2.36 s and 2.97 s and 3.02 s (Example 10, dose Z: 2 mg/kg morphine 30 minutes after vehicle, 15 min); 2.38 s and 2.19 s and 2.74 s (dose B: 3 mg/kg morphine and vehicle, 15 min post-injection). The “Tail Flick Latency (TFL, seconds) 30 min” value is 2.96 s and 2.83 s and 4.73 s (Example 7, dose Z: vehicle and 2 mg/kg morphine); 4.22 s and 4.99 s and 3.00 s (Example 9, dose Z: 2 mg/kg Morphine and vehicle); 2.90 s and 3.58 s and 4.86 s and 4.07 s and 4.39 s and 3.90 s under setting [1]. Besides, the “Tail Flick Latency (TFL, seconds) 60 min” value reads like this: (Example 7, dose Z: vehicle and 2 mg/kg morphine, 60 min) 2.22 s and 3.69 s and 3.85 s; (Example 9, dose Z: 2 mg/kg Morphine and vehicle, 60 min) 2.91 s and 5.25 s and 3.97 s; (Example 10, dose Z: 2 mg/kg morphine 30 minutes after vehicle, 60 min) 3.26 s and 3.14 s and 3.96 s and 3.86 s and 3.99 s and 4.01 s; (dose B: 3 mg/kg morphine and vehicle, 60 min post-injection) 5.36 s and 4.63 s and 4.80 s. Also, the “Tail Flick Latency (TFL, seconds) 120 min” value reads like this: (Example 9, dose Z: 2 mg/kg Morphine and vehicle, 120 min) 2.68 s and 4.83 s and 2.67 s; (Example 10, dose Z: 2 mg/kg morphine 30 minutes after vehicle, 120 min) 2.68 s and 2.94 s and 3.18 s and 3.06 s and 3.23 s; (dose B: 3 mg/kg morphine and vehicle, 120 min post-injection) 4.02 s and 4.55 s and 3.99 s. Moreover, under setting [1], the “Tail Flick Latency (TFL, seconds) 180 min” value is 2.15 s and 2.64 s and 2.59 s and 2.18 s and 2.56 s and 2.67 s.

The values are drawn from patent US20080176885A1, “Novel synergistic opioid-cannabinoid codrug for pain management” (University of Kentucky, priority 2006, published 2008).
